Test results reported in patent US20250127723A1, “PHARMACEUTICAL COMPOSITION COMPRISING LARGE PHYSIOLOGICALLY ACTIVE SUBSTANCE AND EXCIPIENT” (priority 2021, published 2025).
Counter-ions that a name gives are not always drawn. Bridge positions count the residues as written; N and C are the ends. Square brackets hold non-standard residues; d marks the D form. Side chains are listed from the residue outwards. Ends that are not written are not given here. Lys‑B1 = not defined here; EG2 = not defined here; Aib = CC(C)(N)C(=O)O

Key:
[1] = Body weight change 24 hours after single oral administration of amylin derivatives; type: in vivo; conditions: mice, bile acid absorption accelerator formulation
Protocol: After a single oral administration of a formulation using a combination of a large physiologically active substance and excipients to mice, body weight changes were confirmed for 24 hours.

[2] = test system: monolayer membrane of Caco-2 cells; experiment: Tight junction openness by change in TEER value, Caco-2 monolayer; type: cell-based; conditions: apical treatment, 0-120 min, FIG. 2
Protocol: First, to form a Caco-2 cell monolayer, 1.5×10^5 cells per well was dispensed in a 12-Transwell plate and cultured for 3 to 4 weeks under 37° C. CO2 conditions. For the first week, the culture medium was changed once every two days, and thereafter, the culture medium was changed every three days. In the experiment, samples between 3 and 4 weeks after seeding were used. To evaluate the degree of damage to the Caco-2 cell monolayer by excipients, the degree of cells cultured as a monolayer on a semi-permeable membrane was measured by the difference in electrical resistance between the apical side and the basolateral side. First, the Transwell to be used in each test is washed using a washing buffer (HBSS), replaced by culture medium, and equilibrated in a 37° C. CO2 incubator for 15 minutes. After adding 500 μL of the prepared excipient to the apical side and treating the basolateral side with 1.5 mL of culture medium containing no excipient, changes in TEER values were measured using a Millicell ERS-2 Voltohmmeter at each time point (0, 5, 15, 30, 45, 60, 90, 120 min) from the time of treatment.

[3] = Cmax after duodenal administration of Compounds 23 and 24; parameters: species or system experimental rats; conditions: rat, in vivo; rats, duodenum; CDC 68 mg/kg, PG 34 mg/kg; Compound 23 5.4 mg/kg, Compound 24 6.2 mg/kg
Protocol: A large physiologically active substance (Compound 24) was formulated by dissolving it in the corresponding vehicle (0.02% polysorbate 80 in 10 mM PBS (pH 7.4)) with the excipient composition shown in Table 6 above. After administering the above formulation to the duodenum of experimental rats, Cmax was compared. The corresponding results were compared with the results obtained by administering Compound 23, a large physiologically active substance without a biotin moiety, in the same formulation, and are shown in Table 7 below.

[4] = Weight loss, appetite suppression and anti-diabetic efficacy, oral Compound 17 formulation in obese mice; type: in vivo, mice (C57BL/6); conditions: high-fat diet obese C57BL/6 mice; Compound 17 300 to 1000 nmol/kg oral daily 3 weeks; CDC 6.8, UDC 13.6, PG 13.6 mg/mL; FIGS. 11 to 13
Protocol: After oral administration of a formulation containing a large physiologically active substance (Compound 17) and excipients to mice, changes in mouse body weight and anti-diabetic efficacy were confirmed. Specifically, the administered dose of Compound 17 used 300 to 1000 nmol/kg, and the excipient concentrations in the administered formulation used CDC 6.8 mg/mL, UDC 13.6 mg/mL, and PG 13.6 mg/mL. The vehicle used 0.02% polysorbate 80 in 10 mM PBS (pH 7.4). Obese mice were induced by feeding high-fat diet to 6-week-old male mice (C57BL/6) for 16 weeks; then weight changes were confirmed by oral administration of the GLP-1/Glucagon receptor dual agonist (Compound 17), which combines biotin and fatty acid moieties, every day for 3 weeks using a bile acid absorption accelerator formulation.

Caco-2 cells = test system: Caco-2 cells
Protocol: The cytotoxicity of excipients was evaluated using Caco-2 cells using the following method. First, to check the amount of intracellular accumulation, Caco-2 cells were distributed in a 96-well plate at 1×10^5 per well and cultured in a CO2 incubator at a temperature of 37° C. The culture solution from each well is removed and replacement by a new culture medium is performed. After that, […] of the prepared excipient was added and this was cultured in a CO2 incubator at 37° C. After 2 hours, each well was treated with 100 µL of luciferase reagent (Promega, #G7571) and incubated at room temperature. After 10 minutes, the luminescence value of each well was measured. […] [formula]

Caco-2 cell monolayer [5] = type: in vitro ADME
Protocol: Using the Caco-2 cell monolayer, changes in the permeability of markers for each permeation pathway due to excipients were evaluated using the following method. First, to form a Caco-2 cell monolayer, 1.5×10^5 cells per well were dispensed in a 12-Transwell plate and cultured for 3 to 4 weeks under 37° C. CO2 conditions. For the first week, the culture medium was changed once every two days, and thereafter, the culture medium was changed every three days. In the experiment, samples between 3 and 4 weeks after seeding were used. To verify the formation of a cell monolayer, TEER values and Lucifer yellow values were measured, and only cell monolayer membranes having a TEER value of 300 Ω·cm^2 or more and a measured transmittance of Lucifer yellow within 3% were used in the test. After the Transwells to be used for each test were washed using transport media (HBSS) and incubated in a 37° C. CO2 incubator for 1 hour, 500 μL of bile acid derivatives and permeability marker were added to the apical side, and 1.5 mL of drug-free transport media was treated onto the basolateral side, and incubation was performed for 2 hours in a 37° C. CO2 incubator thereafter. At this time, fluorescein isothiocyanate-dextran (FD4) was used as a paracellular marker, and metoprolol was used as a transcellular marker to confirm the change in permeability coefficient according to bile acid derivative treatment. […]

Caco-2 cell monolayer [6] = type: in vitro ADME; remark: listed apart in the source
Protocol: First, to form a Caco-2 cell monolayer, 1.5×10^5 cells per well were dispensed in a 12-Transwell plate and this was cultured for 3 to 4 weeks under 37° C. CO2 conditions. For the first week, the culture medium was changed once every two days, and thereafter, the culture medium was changed every three days. In the experiment, samples between 3 and 4 weeks after seeding were used. To verify the formation of a cell monolayer, TEER values and Lucifer yellow values were measured; only cell monolayer membranes having a TEER value of 300 Ω·cm^2 or more and a measured transmittance of Lucifer yellow within 3% were used in the test. After washing the Transwell to be used for each test using transport media (HBSS), incubation was performed for 1 hour in a 37° C. CO2 incubator; then, 500 μL each of large physiologically active substance (50 μM) and bile acid derivatives (100 μM) were added to the apical side, and 1.5 mL of drug-free transport media was treated onto the basolateral side. Subsequently, incubation was performed for 2 hours in a 37° C. CO2 incubator.
[formula] • (*dCr-concentration of the permeated sample, dt-drug treatment time, Vr-basolateral volume, A-Transwell area, C0-initial applied drug concentration)

## 30: Amylin, SEQ No. 15: KCNTATCATQRLADFLRHSSPNFGAIPSSTNVGSRTY; K1: αLys-EG2-Glu-C18 (*K); K1: Lys-B1 (K*) ({C18-Glu-EG2}-[Lys‑B1]CNTATCATQRLADFLRHSSPNFGAIPSSTNVGSRTY; not fully specified; ends and bridges not checked) [Compound 30]
[1]
  body weight change after 24 hours: weight loss was confirmed

## 36: Amylin, SEQ No. 17: RCNTATCATQRLADFLRHSSNNFGAIPSSTNVGSKTY; R1: αArg-EG2-Glu-C18 (*R); K35: Lys-B1 (K*) ({C18-Glu-EG2}-RCNTATCATQRLADFLRHSSNNFGAIPSSTNVGSKTY; not fully specified (some residues); ends and bridges not checked) [Compound 36]
[1]
  body weight change after 24 hours: weight loss was confirmed

## 32: Amylin, SEQ No. 16: KCNTATCATQRLADFLRHSSNNFGAIPSSTNVGSRTY; K1: Lys-B1 (K*) ([Lys‑B1]CNTATCATQRLADFLRHSSNNFGAIPSSTNVGSRTY; ends and bridges not checked) [Compound 32]
[1]
  body weight change after 24 hours: weight loss was confirmed

## CCCOC(=O)c1cc(O)c(O)c(O)c1 [PG, Propyl gallate]
[2]
  tight junction openness according to the change in TEER value: non-tight junction openness

## 35: Amylin, SEQ No. 17: RCNTATCATQRLADFLRHSSNNFGAIPSSTNVGSKTY; K35: Lys-B1 (K*) (RCNTATCATQRLADFLRHSSNNFGAIPSSTNVGS[Lys‑B1]TY; ends and bridges not checked) [Compound 35]
[1]
  body weight change after 24 hours: weight loss was confirmed

## 27: Amylin, SEQ No. 14: KCNTATCATQRLANFLVHSSNNFGPILPPTNVGSNTY; K1: αLys-EG2-Glu-C18 (*K); K1: Lys-B1 (K*) ({C18-Glu-EG2}-[Lys‑B1]CNTATCATQRLANFLVHSSNNFGPILPPTNVGSNTY; not fully specified; ends and bridges not checked) [Compound 27]
[1]
  body weight change after 24 hours: weight loss was confirmed

## 26: Amylin, SEQ No. 14: KCNTATCATQRLANFLVHSSNNFGPILPPTNVGSNTY; K1: Lys-B1 (K*) ([Lys‑B1]CNTATCATQRLANFLVHSSNNFGPILPPTNVGSNTY; ends and bridges not checked) [Compound 26]
[1]
  body weight change after 24 hours: weight loss was confirmed

## CC[C@H](C)[C@H](NC(=O)[C@H](CCC(=O)O)NC(=O)[C@H](CO)NC(=O)[C@@H](NC(=O)[C@@H](N)CO)C(C)C)C(=O)N[C@@H](CCC(N)=O)C(=O)N[C@@H](CC(C)C)C(=O)N[C@@H](CCSC)C(=O)N[C@@H](Cc1cnc[nH]1)C(=O)N[C@@H](CC(N)=O)C(=O)N[C@@H](CC(C)C)C(=O)NCC(=O)N[C@@H](CCCCN)C(=O)N[C@@H](Cc1cnc[nH]1)C(=O)N[C@@H](CC(C)C)C(=O)N[C@@H](CC(N)=O)C(=O)N[C@@H](CO)C(=O)N[C@@H](CCSC)C(=O)N[C@@H](CCC(=O)O)C(=O)N[C@@H](CCCN=C(N)N)C(=O)N[C@H](C(=O)N[C@@H](CCC(=O)O)C(=O)N[C@@H](Cc1c[nH]c2ccccc12)C(=O)N[C@@H](CC(C)C)C(=O)N[C@@H](CCCN=C(N)N)C(=O)N[C@@H](CCCCN)C(=O)N[C@@H](CCCCN)C(=O)N[C@@H](CC(C)C)C(=O)N[C@@H](CCC(N)=O)C(=O)N[C@@H](CC(=O)O)C(=O)N[C@H](C(=O)N[C@@H](Cc1cnc[nH]1)C(=O)N[C@@H](CC(N)=O)C(=O)N[C@@H](Cc1ccccc1)C(=O)O)C(C)C)C(C)C [Compound 23]
[3]
  Cmax: 30 ng/mL

## Compound 17: GLP-1/GCGRA, SEQ No. 8: H-Aib-QGTFTSDYSKYLDEQAAKEFVQWLMNTK; (Lactam) between E16 and K20; K12: Lys-B1 (K*); K30: Lys-EG2-Glu-C18 (K*) (H-H[Aib]QGTFTSDYSKYLDEQAAKEFVQWLMNTK([EG2-Glu-C18]); lactam 16-20; not fully specified (residue 12); reading uncertain)
[4]
  anti-diabetic efficacy: anti-diabetic effect
  body weight change: weight loss
  feed intake: reduction of feed intake

## 29: Amylin, SEQ No. 15: KCNTATCATQRLADFLRHSSPNFGAIPSSTNVGSRTY; K1: Lys-B1 (K*) ([Lys‑B1]CNTATCATQRLADFLRHSSPNFGAIPSSTNVGSRTY; ends and bridges not checked) [Compound 29]
[1]
  body weight change after 24 hours: weight loss was confirmed

## 33: Amylin, SEQ No. 16: KCNTATCATQRLADFLRHSSNNFGAIPSSTNVGSRTY; K1: αLys-EG2-Glu-C18 (*K); K1: Lys-B1 (K*) ({C18-Glu-EG2}-[Lys‑B1]CNTATCATQRLADFLRHSSNNFGAIPSSTNVGSRTY; not fully specified; ends and bridges not checked) [Compound 33]
[1]
  body weight change after 24 hours: weight loss was confirmed

## C[C@H](CCC(=O)O)[C@H]1CC[C@H]2[C@@H]3[C@@H](O)C[C@@H]4C[C@H](O)CC[C@]4(C)[C@H]3CC[C@]12C [UDC, Ursodeoxycholic acid or its salt]
[2]
  tight junction openness according to the change in TEER value: non-tight junction openness
Caco-2 cells
  cytotoxicity (cell viability): least cytotoxicity
Caco-2 cell monolayer [5]
  effect on paracellular (FD4) and transcellular (metoprolol) transport: no enhancing effect on the two transport mechanisms

## C[C@H](CCC(=O)O)[C@H]1CC[C@H]2[C@@H]3[C@H](O)C[C@@H]4C[C@H](O)CC[C@]4(C)[C@H]3CC[C@]12C [CDC, Chenodeoxycholic acid or its salt]
Caco-2 cell monolayer [6]
  effect of improving the permeability of large physiologically active substances: had an effect of improving the permeability
Caco-2 cells
  cytotoxicity (cell viability): similar
Caco-2 cell monolayer [5]
  effect on paracellular (FD4) and transcellular (metoprolol) transport: promotes both paracellular transport and transcellular transport

## C[C@H](CCC(=O)O)[C@H]1CC[C@H]2[C@@H]3CC[C@@H]4C[C@H](O)CC[C@]4(C)[C@H]3C[C@H](O)[C@]12C [DC, Deoxycholic acid or its salt]
Caco-2 cells
  cytotoxicity (cell viability): similar
